“Also recorded” adds a separate entry of the source.
Experiments:
[1] = tested on: B-16 melanoma cells; test: Tests for tumor cell-proliferation-inhibitory effect and tumor cell-extinction (cell growth rate from viable cell count); assay type: cell-based; conditions: for tumor cell-killing effect (in words): at not less than 2 times the concentration required for proliferation inhibition
Method: The tumor cell-proliferation-inhibitory effect and the tumor cell-killing or extinction effect can be determined according to the following method using B-16 melanoma cells.
More specifically, B-16 melanoma cells are inoculated in each well of a 6-well plate in a desired amount, followed by allowing the plate to stand at 37° C. and 5% carbon dioxide concentration to thus cultivate the cells, adding a sample solution to be tested (maslinic acid, erythrodiol, ursolic acid, uvaol, betulinic acid, betulin and physiologically acceptable salts thereof or derivatives thereof) to each well in an amount sufficient for achieving a desired concentration, on the next day or after 5 days from the initiation of the cultivation, determination of viable cell count on the 6th day after the initiation of the cultivation and calculation of the cell growth rate based on the viable cell count to thus evaluate the tumor cell-proliferation-inhibitory effect and the tumor cell-killing effect.
Tests for determining the tumor cell-proliferation-inhibitory effect and the tumor cell-killing effect were conducted according to the following method. To a 6-well plate, a culture medium was dispensed in an amount of 2 mL/well, B-16 melanoma cells were then inoculated in a desired quantity and thereafter the melanoma cells were cultivated by allowing the plate or the culture medium to stand at 37° C. and a carbon dioxide concentration of 5%. On the following day, a test sample solution prepared was added to and admixed with the content of each well to a desired concentration and the cultivation of the melanoma cells was continued. The culture medium was then exchanged on the 5th day from the initiation of the cultivation and the test sample solution was again added to each well. On the next day, the culture medium was removed to recover the cultivated melanoma cells, followed by washing the cells with PBS (phosphate buffered saline), determination of the viable cell count, and then calculation of the cell growth rate according to the following equation 1. The tumor cell-proliferation-inhibitory effect and the tumor cell-killing effect of each test sample were evaluated on the basis of the cell growth rate thus determined.
Cell Growth Rate (%)=(A/B)×100
As comparative examples, oleanolic acid, β-amyrin, α-amyrin and lupeol were added to the culture medium to thus determine and evaluate the cell growth rate by the same method used above.

[2] = tested on: B16 melanoma cells; test: Test for malignant melanoma metastasis-inhibitory effect (lung metastasis after i.v. injection of B16 melanoma cells); assay type: in vivo, Whister female rats; conditions: rats; for RMI (rate of metastasis-inhibition): Oral Adm., every other day, lung lesions on 15th day; for tumor cell-metastasis-inhibitory effect compared with the control group (in words): metastasis of cancer to lung, summary of Table 2
Method: The tumor cell-metastasis-inhibitory effect can be evaluated according to, for instance, the malignant melanoma metastasis-inhibitory test. More specifically, a suspension of B16 melanoma cells prepared in advance is intravenously injected into Whister female rats, cotton seed oil in which each test substance is dissolved in a predetermined concentration is intraperitoneally administered through injection or orally administered using a sonde, every second day starting from 2nd day after the intravenous injection of the suspension. In this connection, only cotton seed oil is administered to the control group of animals. The lungs are extracted from these animals on the 15th day after the injection of the B16 melanoma cells, the lungs are examined to determine the number of cancer lesions thus metastasized to thus calculate the rate of metastasis-inhibition. The tumor cell-metastasis-inhibitory effect of each test sample is evaluated on the basis of the resulting rate of metastasis-inhibition.
Tests for evaluating the malignant melanoma metastasis-inhibitory effect of each test sample were conducted according to the following method. Whister female rats (6-week-old; average body weight: 160 g) were preliminarily bred with a powdery feed preparation having a composition of AIN-93 for one week, these animals were divided into 5 groups (8 animals per group) so as to equalize the average body weight and then a previously prepared suspension of B16 melanoma cells was intravenously injected into each rat. Subsequently, these animals were bred with a powdery feed preparation having a composition of AIN-93 and cotton seed oil in which each of maslinic acid, erythrodiol, ursolic acid, uvaol, betulinic acid, betulin, compounds of Synthetic Examples 1 and 2, or oleanolic acid had been dissolved in a predetermined concentration was intraperitoneally injected into each animal or orally administered thereto using a sonde, every other day starting from the 2nd day after the injection of the B 16 melanoma cells. In this connection, only cotton seed oil was administered to the control group. On the 15th day after the injection of the B 16 melanoma cells, the lung of each animal was taken out, the lungs were examined to determine the number of cancer lesions thus metastasized and to thus calculate the rate of metastasis-inhibition in accordance with the following equation 2. The tumor cell-metastasis-inhibitory effect of each test sample could be evaluated on the basis of the resulting rate of metastasis-inhibition.
Rate of Metastasis-Inhibition (%)=[(D−C)/D]×100
Wherein C: Average number of cancer lesions metastasized observed in each animal group; and D: average number of cancer lesions metastasized observed in the control group.
Maslinic acid, erythrodiol, ursolic acid, uvaol, betulinic acid, betulin and physiologically acceptable salts thereof or derivatives thereof as well as cotton seed oil as the control were inspected for the rate of metastasis-inhibition (RMI) using the dose and administration methods specified in the following Table 2. In addition, the same procedures used above were repeated except for using oleanolic acid as a comparative sample to thus evaluate the rate of metastasis-inhibition (RMI) thereof.

[3] = 5 ppm, viable cell count vs control on 6th day
[4] = 10 ppm, viable cell count vs control on 6th day
[5] = 15 ppm, viable cell count vs control on 6th day
[6] = 20 ppm, viable cell count vs control on 6th day
[7] = 25 ppm, viable cell count vs control on 6th day
[8] = Mus musculus, B16, 144 h, 5 ppm, viable cell count vs control on 6th day, read-out: Cell Growth Rate
[9] = Mus musculus, B16, 144 h, 15 ppm, viable cell count vs control on 6th day, read-out: Cell Growth Rate
[10] = Mus musculus, B16, 144 h, 20 ppm, viable cell count vs control on 6th day, read-out: Cell Growth Rate
[11] = Mus musculus, B16, 144 h, 25 ppm, viable cell count vs control on 6th day, read-out: Cell Growth Rate
[12] = Mus musculus, B16, 144 h, viable cell count vs control on 6th day

Question: Which “Cell Growth Rate” value [1, 3] does the source give for `CC(=O)O[C@@H]1C[C@]2(C)[C@H]3CC=C4[C@@H]5CC(C)(C)CC[C@]5(C(=O)O)CC[C@@]4(C)[C@]3(C)CC[C@H]2C(C)(C)[C@H]1OC(C)=O` [Comp. Of Synthetic Ex. 2, 2,3-O-di-acetyl-maslinic acid] here?
Answer: 89%

Question: And the “Cell Growth Rate” value [1, 4]?
Answer: 63%

Question: What about the “Cell Growth Rate” value [1, 5] of the same molecule?
Answer: 34%

Question: What about the “Cell Growth Rate” value [1, 6] of the same molecule?
Answer: 4%

Question: What about the “Cell Growth Rate” value [1, 7] of the same molecule?
Answer: 0%

Question: What about the “RMI (rate of metastasis-inhibition)” value ([2]; 100 mg/body wt. (kg)) of the same molecule?
Answer: 74.8%

Question: Which results are given for `C[C@H]1[C@H](C)CC[C@]2(C(=O)O)CC[C@]3(C)C(=CC[C@@H]4[C@@]5(C)CC[C@H](O)C(C)(C)[C@@H]5CC[C@]43C)[C@H]12` [Ursolic acid]?
Answer: activity at 5 ppm [1, 8]: 64%; activity at 10 ppm ([1]; Mus musculus, B16, 144 h, 10 ppm, viable cell count vs control on 6th day, read-out: Cell Growth Rate): 40%; activity at 15 ppm [1, 9]: 3%; activity at 20 ppm [1, 10]: 0%; activity at 25 ppm [1, 11]: 0%; activity at 50 ppm [1, 12]: 0%; tumor cell-killing effect (in words) [1]: quite intensive tumor cell-killing effects; tumor cell-proliferation-inhibitory effect (in words) ([1]; summary of Table 1): quite strong tumor cell-proliferation-inhibitory effects; RMI (rate of metastasis-inhibition) ([2]; 100 mg/body wt. (kg)): 79.5%; tumor cell-metastasis-inhibitory effect compared with the control group (in words) [2]: significantly (P<0.05) inhibit any metastasis of cancer to lung

Question: How did the “Cell Growth Rate” value [1, 3] turn out when `CC1(C)CC[C@]2(C(=O)O)CC[C@]3(C)C(=CC[C@@H]4[C@@]5(C)C[C@@H](O)[C@H](O)C(C)(C)[C@@H]5CC[C@]43C)[C@@H]2C1` [Purified maslinic acid 1, maslinic acid] was run?
Answer: 67%

Question: What about the “Cell Growth Rate” value [1, 4] of the same molecule?
Answer: 43%

Question: What about the “Cell Growth Rate” value [1, 5] of the same molecule?
Answer: 6%

Question: And the “Cell Growth Rate” value [1, 6]?
Answer: 0%

Question: And the “Cell Growth Rate” value [1, 7]?
Answer: 0%

Question: And the “RMI (rate of metastasis-inhibition)” value ([2]; 50 mg/body wt. (kg))?
Answer: 61.4%

Question: What does the source list for `C[C@H]1[C@H](C)CC[C@]2(CO)CC[C@]3(C)C(=CC[C@@H]4[C@@]5(C)CC[C@H](O)C(C)(C)[C@@H]5CC[C@]43C)[C@H]12` [Uvaol]?
Answer: activity at 5 ppm [1, 8]: 80%; activity at 15 ppm [1, 9]: 69%; activity at 25 ppm [1, 11]: 49%; activity at 50 ppm [1, 12]: 30%; tumor cell-proliferation-inhibitory effect (in words) ([1]; summary of Table 1): quite strong tumor cell-proliferation-inhibitory effects; RMI (rate of metastasis-inhibition) ([2]; 100 mg/body wt. (kg)): 43.7%; tumor cell-metastasis-inhibitory effect compared with the control group (in words) [2]: significantly (P<0.05) inhibit any metastasis of cancer to lung

Question: How did the activity at 15 ppm [1, 9] turn out when `CC1(C)CC[C@]2(C(=O)O)CC[C@]3(C)C(=CC[C@@H]4[C@@]5(C)CC[C@H](O)C(C)(C)[C@@H]5CC[C@]43C)[C@@H]2C1` [Oleanolic acid, oleanolic acid, reference compound] was run?
Answer: 100%

Question: And the activity at 20 ppm [1, 10]?
Answer: 100%

Question: And the activity at 25 ppm [1, 11]?
Answer: 100%

Question: And the activity at 30 ppm ([1]; Mus musculus, B16, 144 h, 30 ppm, viable cell count vs control on 6th day)?
Answer: 100%

Question: What about the activity at 40 ppm ([1]; Mus musculus, B16, 144 h, 40 ppm, viable cell count vs control on 6th day) of the same molecule?
Answer: 100%

Question: And the activity at 50 ppm [1, 12]?
Answer: 94%

Question: And the “tumor cell-killing effect (in words)” value [1]?
Answer: not observed

Question: What about the “tumor cell-proliferation-inhibitory effect (in words)” value ([1]; summary of Table 1) of the same molecule?
Answer: cannot inhibit the proliferation of the B-16 melanoma cells at all

Question: What about the “tumor cell-proliferation-inhibitory effect (in words)” value ([1]; summary of Table 1, listed as oleanolic acid) of the same molecule?
Answer: quite weak tumor cell-proliferation-inhibitory effect only at a higher concentration

Question: And the “RMI (rate of metastasis-inhibition)” value ([2]; 300 mg/body wt. (kg))?
Answer: 9.2%

Question: What about the “tumor cell-metastasis-inhibitory effect compared with the control group (in words)” value [2] of the same molecule?
Answer: does not possess any tumor cell-metastasis-inhibitory effect; also recorded: Any significant effect was not observed

Question: What does the source list for `C=C(C)[C@@H]1CC[C@]2(CO)CC[C@]3(C)[C@H](CC[C@@H]4[C@@]5(C)CC[C@H](O)C(C)(C)[C@@H]5CC[C@]43C)[C@@H]12` [Betulin]?
Answer: activity at 5 ppm [1, 8]: 100%; activity at 15 ppm [1, 9]: 78%; activity at 25 ppm [1, 11]: 72%; activity at 50 ppm [1, 12]: 63%; tumor cell-proliferation-inhibitory effect (in words) ([1]; summary of Table 1): quite strong tumor cell-proliferation-inhibitory effects; RMI (rate of metastasis-inhibition) ([2]; 100 mg/body wt. (kg)): 38.9%; tumor cell-metastasis-inhibitory effect compared with the control group (in words) [2]: significantly (P<0.05) inhibit any metastasis of cancer to lung

Question: `CCOC(=O)[C@]12CCC(C)(C)C[C@H]1C1=CC[C@@H]3[C@@]4(C)C[C@@H](O)[C@H](O)C(C)(C)[C@@H]4CC[C@@]3(C)[C@]1(C)CC2` [Comp. Of Synthetic Ex. 1, maslinic acid ethyl ester] was tested. Which “Cell Growth Rate” value [1, 3] did it give?
Answer: 73%

Question: What about the “Cell Growth Rate” value [1, 4] of the same molecule?
Answer: 49%

Question: What about the “Cell Growth Rate” value [1, 5] of the same molecule?
Answer: 18%

Question: What about the “Cell Growth Rate” value [1, 6] of the same molecule?
Answer: 0%

Question: What about the “Cell Growth Rate” value [1, 7] of the same molecule?
Answer: 0%

Question: And the “RMI (rate of metastasis-inhibition)” value ([2]; 100 mg/body wt. (kg))?
Answer: 77.6%

Question: For `CC1(C)CC[C@]2(CO)CC[C@]3(C)C(=CC[C@@H]4[C@@]5(C)CC[C@H](O)C(C)(C)[C@@H]5CC[C@]43C)[C@@H]2C1` [Erythrodiol], which activity at 5 ppm [1, 8] is on record?
Answer: 73%

Question: And the activity at 15 ppm [1, 9]?
Answer: 69%

Question: And the activity at 25 ppm [1, 11]?
Answer: 53%

Question: What about the activity at 50 ppm [1, 12] of the same molecule?
Answer: 43%

Question: What about the “tumor cell-proliferation-inhibitory effect (in words)” value ([1]; summary of Table 1) of the same molecule?
Answer: quite strong tumor cell-proliferation-inhibitory effects

Question: What about the “RMI (rate of metastasis-inhibition)” value ([2]; 100 mg/body wt. (kg)) of the same molecule?
Answer: 56.3%

Question: What about the “tumor cell-metastasis-inhibitory effect compared with the control group (in words)” value [2] of the same molecule?
Answer: significantly (P<0.05) inhibit any metastasis of cancer to lung
